Paper doi:10.1101/2021.04.29.441652v1 (biorxiv, 2021)

Target: human σ2 receptor (TMEM97) (Homo sapiens, UniProt Q5BJF2)
Assay: biochemical
Assay type: Expi293 membranes
Details: read-out: % of control remaining

Sequence of human σ2 receptor (TMEM97) (Q5BJF2 whole entry): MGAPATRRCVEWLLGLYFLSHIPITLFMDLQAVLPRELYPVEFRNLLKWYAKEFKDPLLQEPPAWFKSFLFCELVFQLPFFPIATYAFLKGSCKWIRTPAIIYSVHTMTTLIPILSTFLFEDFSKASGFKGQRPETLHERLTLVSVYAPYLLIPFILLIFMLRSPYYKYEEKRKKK

remaining activity at 1 µM [%] | SMILES
107 | CC(C)CN1CCC(NC(=O)NNC(=O)C(=O)NC2CC2)CC1 [ZINC000045463977]
85 | CCCn1c(C)cc(/C=C(/C#N)C(=O)NCCN(C)Cc2ccccc2)c1C [ZINC000064804934]
74.2 | CC[C@@H](C)NC(=O)[C@@H](C)N1CCC(c2c[nH]c3ccccc23)CC1 [ZINC000073649189]
86.9 | C[C@H](C(=O)NCc1cc(Br)cs1)N1CCCCCC1 [ZINC000074484650]
60.5 | c1cncc(-c2nc(N3CCC[C@H](N4CCCC4)C3)c3ccccc3n2)c1 [ZINC000076836015]
24.7 | Cc1noc(-c2cccnc2NC2CCC(N3CCCCC3)CC2)n1 (centres unmarked) [ZINC000080247921]
89.6 | c1ccc(-c2csc(CN3CCC4(C3)OCCO4)c2)cc1 [ZINC000093013680]
18.2 | CC1CCC(N2CCN(CCOC(C)C)CC2)CC1 (centres unmarked) [ZINC000115566238]
17.7 | O=C(Nc1cccc(OC(F)(F)F)c1)C(=O)N1CCC[C@@H](N2CCCC2)CC1 [ZINC000120571916]
89.7 | N#Cc1csc(CN2CCC[C@H]2Cc2ccccc2)c1 [ZINC000124982852]
14.2 | COc1ccccc1O[C@H](C)CN[C@@H](C)c1ccccc1OC [ZINC000129576345]
68.6 | CN1CCN(c2ncc(CN3CCN(CC4CC4)CC3)cn2)CC1 [ZINC000130668661]
76.6 | C[C@H](Cn1cc(Br)cn1)NCc1cn2cc(Cl)ccc2n1 [ZINC000131571127]
65.7 | CN(C(=O)C[C@@H]1CSCCN1)[C@@H]1CCCN(c2cccnn2)C1 [ZINC000133744458]
65.4 | C[C@@H](Cn1cc(Br)cn1)NCCOc1ccc2c(c1)OCO2 [ZINC000133991118]
21.7 | O=C(CCc1cc(Br)ccc1F)N1CC[C@@H](CN2CCCC2)C1 [ZINC000135482356]
53.9 | O=C(NCc1ccc(F)cc1C(F)(F)F)[C@@H]1CC12CCNCC2 [ZINC000136880129]
44.7 | COC(=O)[C@@H](C)CS(=O)(=O)N[C@@H]1CCN(CC2CCCC2)C1 [ZINC000152090354]
99.4 | O=C(CN1CC[C@]2(CCOC2)C1)N[C@@H](Cc1ccccc1)c1ccccc1 [ZINC000153400973]
17.2 | Cc1cc(C(C)(C)C)ccc1OC[C@@H](O)CN1CC[C@]2(CCOC2)C1 [ZINC000153451054]
33.8 | C[C@H](N[C@@H](C)CN1CCN(C)CC1)c1ccc(-c2ccccc2)o1 [ZINC000155112667]
30.9 | CS[C@@H]1CCC[C@H](NC(=O)NC2CCN([C@@H]3CCCC[C@@H]3O)CC2)C1 [ZINC000155998528]
111 | C[C@H]1C[C@@H](NC(=O)C(=O)Nc2cnn(CC(F)F)c2)CN1C1CC1 [ZINC000158577469]
108 | CC(C)[C@H](C(=O)NC[C@H](C[C@@H](C)O)c1ccccc1)N1CCCCC1 [ZINC000159130997]
29.7 | FC(F)(F)c1ccc(-c2nc(CN3CC[C@H](N4CCCC4)C3)cs2)cc1 [ZINC000170742095]
96.3 | O=C(Nc1ccc2ncsc2c1)C(=O)N1CCCN(C2CCCC2)CC1 [ZINC000172648663]

remaining activity at 1 µM [%] | SMILES
41.6 | COC(=O)[C@@H](NCC[C@H](C)N(C)Cc1ccccc1)c1cccc(C#N)c1 [ZINC000176805277]
111 | O=C1Nc2ccccc2C12CCC(NCC1(O)CCOCC1)CC2 (centres unmarked) [ZINC000178638284]
34.6 | CCN(CC)[C@H]1CCN(Cc2ncc(Cl)cc2Cl)C1 [ZINC000182372239]
98 | C[C@H](CCNC(=O)N1CCO[C@H]([C@@H]2CCCO2)C1)N1CCCCC1 [ZINC000182663590]
36.1 | Cc1ccc([N+](=O)[O-])cc1[C@H](C)N1C[C@H]2CCC[C@@H]2C1 [ZINC000182842742]
95.3 | N#Cc1ccccc1NC(=O)CCN1CCC(O)(c2c(F)cccc2F)CC1 [ZINC000186482223]
0.9 | C[C@H](Cn1ncc2ccccc2c1=O)N[C@H]1CC[C@H](Cc2ccccc2)C1 [ZINC000188287346]
106 | O=C(NCCc1ccc(F)c(Br)c1)[C@H]1C[C@H](F)CN1 [ZINC000188412270]
52.9 | O=C1Nc2ccccc2CC[C@H]1N1CC[C@@H](COCc2ccccc2)C1 [ZINC000192043753]
89 | COc1ccc2ccccc2c1-c1cc(CN2CCN(C[C@@H](C)O)C[C@H]2C)on1 [ZINC000192810020]
109 | CC(C)(C)N1CCC(NC(=O)c2ncccc2Br)CC1 [ZINC000194878845]
113 | Cc1ccccc1NC(=O)CN1CCC[C@@H]1C[C@H](C)O [ZINC000228149300]
89 | N[C@@H](CC(=O)Nc1cccc(C(=O)N2CCCC2)c1)c1ccccc1 [ZINC000237909071]
114 | C[C@@H]1CCCN1CC(=O)NCC(=O)N[C@H](C)c1ccc(F)cc1 [ZINC000245453841]
98.5 | CC[C@H](C)CNC[C@H]1CCC[C@H]1NS(C)(=O)=O [ZINC000245533477]
72.6 | CCN(C[C@@H]1CCN(Cc2ccccc2)C1)C(=O)[C@H]1CC(=O)N(C2CCCC2)C1 [ZINC000246894550]
61.2 | COC(=O)C[C@H]1CCCN1C[C@@H](O)Cc1ccc(C(F)(F)F)cc1 [ZINC000247001079]
73 | O=C1[C@H](N2C[C@@H]3CCC[C@H]3C2)CCN1c1ccccc1Cl [ZINC000247015101]
104 | CN1CCC[C@@H]2CN(Cn3ccc(-c4ccc(Br)cc4)n3)CC[C@H]21 [ZINC000247147334]
87.4 | CN(C[C@@H](O)CCc1ccccc1)[C@H]1CCN(c2ccccc2F)C1=O [ZINC000248559983]
103 | C[C@H]1CCN(CC#Cc2cccc(Cl)c2)[C@H]1CO [ZINC000248917461]
30.5 | O[C@]1(CN[C@@H]2CC[C@@H](Cc3ccccc3)C2)CCSC1 [ZINC000249076038]
56.1 | C[C@H]1CN/C(=N/Cc2cccc(OCc3ccccc3)c2)N1 [ZINC000261552362]
108 | C=CCOCC(=O)N(CCN)CCc1ccccc1 [ZINC000261774189]
6.4 | C=C(C)CN/C(N)=N/[C@H]1C[C@H](c2cccc(F)c2)C1 [ZINC000262856881]
83.4 | Cc1ccc(NC(=O)CN2CCC[C@@H](C3OCCO3)C2)cc1Cl [ZINC000263644082]

remaining activity at 1 µM [%] | SMILES
102 | COC1CCC(N(C)CC(=O)Nc2ccc3ccccc3c2)CC1 (centres unmarked) [ZINC000265181994]
97.5 | Cc1cccnc1[C@H](NC(=O)N1CCN(C2CCC2)CC1)C(C)C [ZINC000265281429]
11.1 | N/C(=N\Cc1cccc2c1OCCCO2)NC1CCCC1 [ZINC000269280100]
121 | COCC1(O)CCN(C[C@@H](O)Cn2cnc3cc(C)c(C)cc32)CC1 [ZINC000270395954]
28.3 | CCCN(C)C[C@H]1CCN([C@H](C)C(=O)c2c[nH]c3ncccc23)C1 [ZINC000271284821]
79.1 | Cc1c(Br)cccc1C(=O)N1CC[C@@H]2CCN(C)C[C@H]21 [ZINC000272592294]
91.2 | CN1CCC(C)(CNC(=O)Nc2ccc(Br)nc2)CC1 [ZINC000272631760]
97.6 | CC[C@@]1(C)Oc2ccc(NC(=O)C(=O)NC[C@@H]3CCN(C)C3)cc2O1 [ZINC000276781830]
105 | COCCOc1ccc(NC(=O)C(=O)N2C[C@H]3CN(C)C[C@H]3C2)cn1 [ZINC000279187431]
98.5 | Cc1noc(C)c1CNC(=O)C(=O)N1CCN(C2CCCC2)CC1 [ZINC000283462313]
17.5 | COc1ccc(-c2ccccc2)cc1CNCCC1(O)CCOCC1 [ZINC000285662957]
115 | CCc1cccc(C)c1NC(=O)CN1C[C@@H](N2CCCC2)C[C@H]1C [ZINC000285725404]
139 | CNC(=O)CC[C@H]1CCCCN1Cc1cc(-c2ccccc2)on1 [ZINC000286502332]
75 | COC(=O)c1cccc(S(=O)(=O)N2CC[C@@H](N3CCCC3)[C@@H]2C)c1 [ZINC000286616311]
132 | CCc1nn(C)c(Cl)c1C(=O)N1CC[C@@H](N2CCNCC2)C1 [ZINC000286782676]
117 | Cc1c(CNC(=O)C(=O)N2CC[C@@H](C3CCN(C)CC3)C2)cnn1C [ZINC000287105318]
114 | O[C@H]1c2ccccc2C[C@H]1N1Cc2cccc(Cl)c2C1 [ZINC000287374567]
111 | COC(=O)C[C@H]1CCCN1C[C@@H](O)Cc1cccc(Cl)c1 [ZINC000287581634]
114 | CS[C@@H]1CCN(Cc2cnc(C)n2-c2ccccc2)C1 [ZINC000295103757]
106 | CS[C@H]1CCN([C@H](C)c2nc(-c3ccccc3C)no2)C1 [ZINC000296435291]
59.2 | C[C@H](COc1ccc(Cl)c(Cl)c1)N[C@@H](C)Cn1cncn1 [ZINC000296612417]
105 | CN(CCCN(C)C(=O)C(=O)N(CCO)C1CC1)Cc1ccco1 [ZINC000297448741]
89 | O=C(CN1CCC(c2nc3cc(Cl)ccc3o2)CC1)N1CCC1 [ZINC000298791523]
88.5 | c1ccc(SC[C@@H]2CCN(c3cc(N4CCCCC4)ncn3)C2)cc1 [ZINC000301468116]
87.2 | CC(C)CC(=O)N[C@@H](C(=O)N1CCC[C@H](N2CCCC2)C1)c1ccccc1 [ZINC000332414923]

SMILES | remaining activity at 1 µM [%]
C[C@H](c1ccccn1)N1CC=C(c2ccc(O)cc2)CC1 [ZINC000176995469] | 61.4
COc1ccc(Br)cc1C/N=C1/NC[C@@H](C)N1 [ZINC000262658947] | 45.4
C[C@@H]1COCC[C@@H]1NCCc1c[nH]c2cccc(Br)c12 [ZINC000289897491] | 51
